# Legend:
# [1] = biological target: T1, human CB1 (hCB1) receptor (Homo sapiens, UniProt P21554); assay: Inhibition of forskolin-activated cAMP production upon activation of human CB1 receptor (HTRF assay, CHO-K1 cells); assay type: cell-based; details: agonism; CHO-K1 cells stably transfected with hCB1; pEC50=-log(EC50); relative to CP55490; read-out: CB-1 pEC50 (converted)
# T1 construct: expressed in transfected cells; host or cells: CHO-K1
# Method: (§1) Functional activity of the test compounds was assessed by measuring their potency to inhibit forskolin-activated cAMP production upon activation of the human CB1 (hCB1) or human CB2 (hCB2) receptor through homogenous time resolved fluorescence (HTRF) assays.
# (§2) CHO-K1 cells stably transfected with either hCB1 or hCB2 were grown up to 80-90% confluence in T175 Falcon flasks in DMEM/NUT MIX F-12 culture medium complemented with 2% Solution A (5.10^6 IU/1 penicillin G, 5 g/l streptomycin sulphate, 5.5 g/l pyruvate, 14.6 g/l L-glutamine, 1M NaOH) and 10% foetal calf serum. Before the experiments, medium was removed, cells were washed with PBS/EDTA (140 mM NaCl, 1 mM Na2-EDTA, 8 mM Na2HPO4.2H2O, 8.5 mM KH2PO4, 2.7 mM KCl, 21 mM glucose), resuspended in stimulation buffer (HBSS 1×, IBMX 1 mM, Hepes 5 mM, MgCl2 10 mM, BSA 0.1%, pH 7.4). Cells were diluted to a concentration of 8.10^5 cell/ml for hCB1 experiments and 10^6 cells/ml for hCB2 experiments. Assays were performed using the cAMP Dynamic HTRF kit (CIS bio international, France) according to the recommendations of the manufacturer.
# For CB1, each well of a 96 flat bottom black polystyrene assay plate (Costar) was filled with 25 μl stimulation buffer containing 6 μM forskolin and either test compound (in 2% DMSO), 2% DMSO or 2 μM CP55490 (in 2% DMSO). Then, 25 μl of the diluted cells was added (20,000 cells/well). After 30 minutes incubation in dark at room temperature, 25 μl cAMP-XL665 and 25 μl anti-cAMP cryptate (both at a final dilution of 1/80) was added to the cells.
# (§3) After equilibration of the reaction mixtures for 1 to 24 hours in dark at room temperature, fluorescence was measured at 665 nm and 620 nm using a Discovery microplate fluorescence counter (Perkin Elmer), and the signal ratio of 665 nm/620 nm was calculated. The signal ratios of the test compounds were expressed relative to the signal ratios of the DMSO control (maximal signal ratio, no inhibition of cAMP) and CP55490 or WIN55212-2 for hCB1 and hCB2, respectively (minimal signal ratio, maximal inhibition of cAMP). From the dose response curves generated for each test compound, the dose at which 50% of the maximal inhibition of cAMP level is observed (EC50, expressed in the Tables as pEC50=−log(EC50) values) and the level of inhibition reached with 10 μM of the test compound compared to CP55490 (for hCB1) or WIN55212-2 (for hCB2) was calculated.
# [2] = biological target: T2, human CB2 (hCB2) receptor (Homo sapiens, UniProt P34972); assay: Inhibition of forskolin-activated cAMP production upon activation of human CB2 receptor (HTRF assay, CHO-K1 cells); assay type: cell-based; details: agonism; CHO-K1 cells stably transfected with hCB2; pEC50=-log(EC50); relative to WIN55212-2; read-out: CB-2 pEC50 (converted)
# T2 construct: expressed in transfected cells; host or cells: CHO-K1
# Method: as §1, §2
# For CB2, each well of a 384 flat bottom black polystyrene assay plate (Costar) was filled with 10 μl stimulation buffer containing 15 μM forskolin and either test compound (in 3% DMSO), 3% DMSO or 10 μM Win55212-2 (in 3% DMSO). Then, 20 μl of the diluted hCB2-CHO-K1 cells was added (20,000 cells/well). After 30 minutes incubation in dark at room temperature, 10 μl cAMP-XL665 and 10 μl anti-cAMP cryptate (both at a final dilution of 1/100) was added to the cells.
# as §3
# T2 sequence (P34972 whole entry): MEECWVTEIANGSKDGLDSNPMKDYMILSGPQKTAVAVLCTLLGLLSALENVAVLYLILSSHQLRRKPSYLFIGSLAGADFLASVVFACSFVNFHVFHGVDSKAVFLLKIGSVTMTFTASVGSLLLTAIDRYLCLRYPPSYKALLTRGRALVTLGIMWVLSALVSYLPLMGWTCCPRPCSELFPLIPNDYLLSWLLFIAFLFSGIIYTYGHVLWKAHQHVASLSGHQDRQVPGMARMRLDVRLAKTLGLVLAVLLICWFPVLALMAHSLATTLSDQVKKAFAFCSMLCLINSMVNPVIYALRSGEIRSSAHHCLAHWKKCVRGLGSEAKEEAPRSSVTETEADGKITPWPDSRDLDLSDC
# T1 sequence (P21554 whole entry): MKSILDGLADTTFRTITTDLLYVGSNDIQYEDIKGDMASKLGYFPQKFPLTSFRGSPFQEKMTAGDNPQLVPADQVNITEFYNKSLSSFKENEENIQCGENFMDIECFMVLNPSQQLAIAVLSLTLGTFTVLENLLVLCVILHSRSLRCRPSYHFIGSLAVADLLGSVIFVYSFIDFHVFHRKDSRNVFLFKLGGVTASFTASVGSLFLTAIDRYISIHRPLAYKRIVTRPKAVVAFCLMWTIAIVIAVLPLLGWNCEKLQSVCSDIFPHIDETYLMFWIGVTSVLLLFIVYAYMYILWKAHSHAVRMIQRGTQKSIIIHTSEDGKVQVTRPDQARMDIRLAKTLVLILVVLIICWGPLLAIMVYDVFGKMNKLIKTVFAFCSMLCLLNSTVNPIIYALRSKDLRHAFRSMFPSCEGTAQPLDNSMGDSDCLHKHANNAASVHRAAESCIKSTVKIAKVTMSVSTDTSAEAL
Compound,EC50 [1] [nM],EC50 [2] [nM],melting point [°C]
CC(C)(C)c1nc2cc(S(=O)(=O)c3ccncc3)ccc2n1CCCC(F)(F)F [compound 4],2510,0.398,
CC(C)(C)c1nc2cc(S(=O)(=O)c3ccc(C(N)=O)cc3)ccc2n1CCCC(F)(F)F [compound 18],2000,3.16,
CC(C)(C)c1nc2cc([S+]([O-])c3ccc(C#N)cc3)ccc2n1CCCC(F)(F)F (stereo not drawn) [compound 7],> 10000,2.51,
CC(C)(C)c1nc2cc(S(=O)(=O)C3CCNC3=O)ccc2n1CCCC(F)(F)F (stereo not drawn) [compound 16],3980,2.51,
COc1ccc(CSc2ccc3c(c2)nc(C(C)(C)C)n3CCCCC(F)(F)F)cc1 [compound 10],> 10000,6.31,
COc1ccc(CSc2ccc3c(c2)nc(C(C)(C)C)n3CCCC(F)(F)F)cc1,,,143.2
CC(C)(C)c1nc2cc(S(=O)(=O)c3ccc(C#N)cc3)ccc2n1CCCC(F)(F)F,,,165.1
CC(C)(C)c1nc2cc(S(=O)(=O)c3ccc(C#N)cc3)ccc2n1CCCCC(F)(F)F [compound 12],25.1,1,180.1
CC(C)(C)c1nc2cc(S(=O)(=O)Cc3ccc(C(N)=O)cc3)ccc2n1CCCCC(F)(F)F [compound 22],79.4,2,222.8
CC(C)(C)c1nc2cc(S(=O)(=O)Cc3ccc(C#N)cc3)ccc2n1CCCCC(F)(F)F,,,177.4
CC(C)(C)c1nc2cc(SCC3CC3)ccc2n1CCCCC(F)(F)F [compound 14],10,2,
COc1ccc(CSc2ccc3c(c2)nc(C(C)(C)C)n3CCCC(F)(F)F)cc1 [compound 1],> 10000,5.01,
CC(C)(C)c1nc2cc(S(=O)(=O)C3CCNC3=O)ccc2n1CCCCC(F)(F)F (stereo not drawn) [compound 23],1580,5.01,
CC(C)(C)c1nc2cc(S(=O)(=O)CC3CC3)ccc2n1CCCCC(F)(F)F [compound 11],31.6,1.58,
CC(C)(C)c1nc2cc(Sc3cn[nH]c3)ccc2n1CCCC(F)(F)F [compound 8],> 10000,0.631,
CC(C)(C)c1nc2cc(S(=O)(=O)c3ccc(C(N)=O)cc3)ccc2n1CCCC(F)(F)F,,,207.8
CC(C)(C)c1nc2cc(S(=O)(=O)c3ccncc3)ccc2n1CCCC(F)(F)F,,,155.4
CC(C)(C)c1nc2cc(S(=O)(=O)Cc3ccc(C#N)cc3)ccc2n1CCCCC(F)(F)F [compound 19],> 10000,2,
CC(C)(C)c1nc2cc(S(=O)(=O)C3CCNC3=O)ccc2n1CCCC(F)(F)F (stereo not drawn),,,208.7
CC(C)(C)c1nc2cc(Sc3ccc(C#N)cc3)ccc2n1CCCC(F)(F)F [compound 9],25.1,1,
CC(C)(C)c1nc2cc(S(=O)(=O)c3ccncc3)ccc2n1CCCCC(F)(F)F [compound 13],200,1.58,147.6
CC(C)(C)c1nc2cc(S(=O)(=O)CC3CC3)ccc2n1CCCC(F)(F)F [compound 3],316,1.26,
CC(C)(C)c1nc2cc(S(=O)(=O)C(F)(F)c3ccc(C#N)cc3)ccc2n1CCCCC(F)(F)F [compound 21],79.4,3.16,
CC(C)(C)c1nc2cc(S(=O)(=O)c3ccc(C#N)cc3)ccc2n1CCCC(F)(F)F [compound 6],79.4,0.398,
CC(C)(C)c1nc2cc(S(=O)(=O)C(C)(C)c3ccc(C#N)cc3)ccc2n1CCCCC(F)(F)F [compound 20],2000,1.58,
CC(C)(C)c1nc2cc(S(=O)(=O)c3cn[nH]c3)ccc2n1CCCC(F)(F)F [compound 5],1260,0.794,220.8
CC(C)(C)c1nc2cc(S(=O)(=O)C(C)(C)c3ccc(C#N)cc3)ccc2n1CCCCC(F)(F)F,,,187.6

# From patent US20100273831A1, “FLUORO ALKYL SUBSTITUTED BENZIMIDAZOLE CANNABINOID AGONISTS” (priority 2007, published 2010)
